Data from PMC9571049 (Molecules, 2022).
Where two headings read alike, the source gives them in different places.

Key:
[1] = target: H1N1 NA (A/PuertoRico/8/1934) (Influenza A virus, UniProt P03468); assay: biochemical
in vitro [2] = conditions: chicken
Kunming mice = conditions: mouse, in vivo
[3] = target: H5N1 NA (A/Goose/Guangdong/SH7/2013) (Influenza A virus, UniProt V5P6N1); format: biochemical
[4] = system: A/Goose/Guangdong/SH7/2013 (H5N1); assay: microbe, parasite or virus in culture; format: cell-based; conditions: read-out: EC50 towards influenza virus H5N1
A/Wisconsin/67/05 (H3N2) = assay: microbe, parasite or virus in culture; format: cell-based; conditions: read-out: EC50 towards influenza virus H3N2
[5] = system: A/Goose/Jiangsu/1306/2014 (H5N8); assay: microbe, parasite or virus in culture; format: cell-based; conditions: read-out: EC50 towards influenza virus H5N8
in vitro [6] = conditions: dog
A/PR/8/34 (H1N1) = assay: microbe, parasite or virus in culture; format: cell-based; conditions: read-out: EC50 towards influenza virus H1N1
N1, H5N1 = conditions: cited from earlier work

## CCC(CC)O[C@@H]1C=C(C(=O)O)C[C@H](NCc2ccc(OCc3ccccc3B(O)O)cc2)[C@H]1NC(C)=O [Compound 1c, (3R,4R,5S)-4-acetamido-5-((4-((2-boronobenzyl)oxy)benzyl)amino)-3-(pentan-3-yloxy)cyclohex-1-ene-1-carboxylic acid]
other
  melting point: 146.3 to 150.5 °C (dec.)
[1]
  IC50: 690 ± 130 nM

## CCC(CC)O[C@@H]1C=C(C(=O)O)C[C@H](NCc2ccc(OCc3cccc(B(O)O)c3)cc2)[C@H]1NC(C)=O [Compound 2c, (3R,4R,5S)-4-acetamido-5-((4-((3-boronobenzyl)oxy)benzyl)amino)-3-(pentan-3-yloxy)cyclohex-1-ene-1-carboxylic acid]
In vitro [2]
  CC50: 143000 ± 9560 nM
[1]
  IC50: 60 ± 7 nM
Kunming mice
  behavior abnormalities (lethargy, clonic convulsions, anorexia, ruffled fur): no significant behavior abnormalities
  body weight: increased gradually
  death: no death occurred
Kunming mice; 1000 mg/kg
  acute toxicity: no acute toxicity
[3]
  fold lower potency than OSC against H5N1 in the enzymatic assay: 3.9 fold
[4]; Influenza A virus, H5N1, CEF
  EC50: 690 ± 91 nM
A/Wisconsin/67/05 (H3N2); Influenza A virus, H3N2, MDCK
  EC50: 11100 ± 1150 nM
[5]; Influenza A virus, H5N8, CEF
  EC50: 1570 ± 210 nM
In vitro [6]
  CC50: > 250000 nM
A/PR/8/34 (H1N1); Influenza A virus, MDCK
  EC50: 30 ± 30 nM

## CCC(CC)O[C@@H]1C=C(C(=O)O)C[C@H](NCc2ccc(OCc3ccc(B(O)O)cc3)cc2)[C@H]1NC(C)=O [Compound 3c, (3R,4R,5S)-4-acetamido-5-((4-((4-boronobenzyl)oxy)benzyl)amino)-3-(pentan-3-yloxy)cyclohex-1-ene-1-carboxylic acid]
In vitro [2]
  CC50: 289000 ± 15800 nM
other
  melting point: 168.3 to 172.1 °C (dec.)
[1]
  IC50: 45 ± 6.7 nM
[4]; Influenza A virus, H5N1, CEF
  EC50: 3200 ± 440 nM
A/Wisconsin/67/05 (H3N2); Influenza A virus, H3N2, MDCK
  EC50: 3080 ± 590 nM
[5]; Influenza A virus, H5N8, CEF
  EC50: 2510 ± 230 nM
In vitro [6]
  CC50: > 250000 nM
A/PR/8/34 (H1N1); Influenza A virus, MDCK
  EC50: 20 ± 10 nM

## CCC(CC)O[C@@H]1C=C(C(=O)O)C[C@H](NCc2ccc(OCc3ccccc3C(=O)O)cc2)[C@H]1NC(C)=O [Compound 4c, 2-((4-((((1S,5R,6R)-6-acetamido-3-carboxy-5-(pentan-3-yloxy)cyclohex-3-en-1-yl)amino)methyl)phenoxy)methyl)benzoic acid]
other
  melting point: 177.1 to 178.9 °C
[1]
  IC50: 15000 ± 880 nM

## CCC(CC)O[C@@H]1C=C(C(=O)O)C[C@H](NCc2ccc(OCc3cccc(C(=O)O)c3)cc2)[C@H]1NC(C)=O [Compound 5c, 3-((4-((((1S,5R,6R)-6-acetamido-3-carboxy-5-(pentan-3-yloxy)cyclohex-3-en-1-yl)amino)methyl)phenoxy)methyl)benzoic acid]
[1]
  IC50: 390 ± 40 nM

## CCC(CC)O[C@@H]1C=C(C(=O)O)C[C@H](NCc2ccc(OCc3ccc(C(=O)O)cc3)cc2)[C@H]1NC(C)=O [Compound 6c, 4-((4-((((1S,5R,6R)-6-acetamido-3-carboxy-5-(pentan-3-yloxy)cyclohex-3-en-1-yl)amino)methyl)phenoxy)methyl)benzoic acid]
other
  melting point: 193.3 to 195.5 °C (dec.)
[1]
  IC50: 600 ± 130 nM

## CCC(CC)O[C@@H]1C=C(C(=O)O)C[C@H](NCc2ccc(OCc3cc(C(=O)O)ccc3OC)cc2)[C@H]1NC(C)=O [Compound 7c, 3-((4-((((1S,5R,6R)-6-acetamido-3-carboxy-5-(pentan-3-yloxy)cyclohex-3-en-1-yl)amino)methyl)phenoxy)methyl)-4-methoxybenzoic acid]
[1]
  IC50: 14000 ± 930 nM

## CCC(CC)O[C@@H]1C=C(C(=O)O)C[C@H](NCc2ccc(OCc3ccc(C(=O)O)cc3Cl)cc2)[C@H]1NC(C)=O [Compound 8c, 4-((4-((((1S,5R,6R)-6-acetamido-3-carboxy-5-(pentan-3-yloxy)cyclohex-3-en-1-yl)amino)methyl)phenoxy)methyl)-3-chlorobenzoic acid]
other
  melting point: 189.3 to 192.1 °C (dec.)
[1]
  IC50: 250 ± 31 nM

## CCC(CC)O[C@@H]1C=C(C(=O)O)C[C@H](NCc2ccc(OCc3ccc(C(=O)O)cc3OC)cc2)[C@H]1NC(C)=O [Compound 9c, 4-((4-((((1S,5R,6R)-6-acetamido-3-carboxy-5-(pentan-3-yloxy)cyclohex-3-en-1-yl)amino)methyl)phenoxy)methyl)-3-methoxybenzoic acid]
other
  melting point: 171.2 to 175.7 °C (dec.)
[1]
  IC50: 3210 ± 380 nM

## CCC(CC)O[C@@H]1C=C(C(=O)O)C[C@H](NCc2ccc(OCc3ccc(C(=O)O)c(OC)c3)cc2)[C@H]1NC(C)=O [Compound 10c, 4-((4-((((1S,5R,6R)-6-acetamido-3-carboxy-5-(pentan-3-yloxy)cyclohex-3-en-1-yl)amino)methyl)phenoxy)methyl)-2-methoxybenzoic acid]
other
  melting point: 190.5 to 195.1 °C (dec.)
[1]
  IC50: 3590 ± 25 nM

## CCC(CC)O[C@@H]1C=C(C(=O)O)C[C@H](NCc2ccc(OCc3ccccc3[N+](=O)[O-])cc2)[C@H]1NC(C)=O [Compound 11c, (3R,4R,5S)-4-acetamido-5-((4-((2-nitrobenzyl)oxy)benzyl)amino)-3-(pentan-3-yloxy)cyclohex-1-ene-1-carboxylic acid]
other
  melting point: 150.8 to 152.7 °C
[1]
  IC50: 1160 ± 110 nM

## CCC(CC)O[C@@H]1C=C(C(=O)O)C[C@H](NCc2ccc(OCc3cccc([N+](=O)[O-])c3)cc2)[C@H]1NC(C)=O [Compound 12c, (3R,4R,5S)-4-acetamido-5-((4-((3-nitrobenzyl)oxy)benzyl)amino)-3-(pentan-3-yloxy)cyclohex-1-ene-1-carboxylic acid]
[1]
  IC50: 170 ± 6.8 nM

## CCC(CC)O[C@@H]1C=C(C(=O)O)C[C@H](NCc2ccc(OCc3ccc([N+](=O)[O-])cc3)cc2)[C@H]1NC(C)=O [Compound 13c, (3R,4R,5S)-4-acetamido-5-((4-((4-nitrobenzyl)oxy)benzyl)amino)-3-(pentan-3-yloxy)cyclohex-1-ene-1-carboxylic acid]
other
  melting point: 184.1 to 187.5 °C (dec.)
[1]
  IC50: 500 ± 63 nM

## CCC(CC)O[C@@H]1C=C(C(=O)O)C[C@H](NCc2ccc(OCc3cccc(C(N)=O)c3)cc2)[C@H]1NC(C)=O [Compound 14c, (3R,4R,5S)-4-acetamido-5-((4-((3-carbamoylbenzyl)oxy)benzyl)amino)-3-(pentan-3-yloxy)cyclohex-1-ene-1-carboxylic acid]
In vitro [2]
  CC50: 291000 ± 17900 nM
[1]
  IC50: 11 ± 1.3 nM
[4]; Influenza A virus, H5N1, CEF
  EC50: 1180 ± 170 nM
A/Wisconsin/67/05 (H3N2); Influenza A virus, H3N2, MDCK
  EC50: > 100000 nM
[5]; Influenza A virus, H5N8, CEF
  EC50: 2800 ± 460 nM
In vitro [6]
  CC50: > 250000 nM
A/PR/8/34 (H1N1); Influenza A virus, MDCK
  EC50: 210 ± 20 nM

## CCC(CC)O[C@@H]1C=C(C(=O)O)C[C@H](NCc2ccc(OCc3ccc(C(N)=O)cc3)cc2)[C@H]1NC(C)=O [Compound 15c, (3R,4R,5S)-4-acetamido-5-((4-((4-carbamoylbenzyl)oxy)benzyl)amino)-3-(pentan-3-yloxy)cyclohex-1-ene-1-carboxylic acid]
[1]
  IC50: 1730 ± 290 nM

## CCC(CC)O[C@@H]1C=C(C(=O)O)C[C@H](NCc2ccc(OCc3cccc(S(N)(=O)=O)c3)cc2)[C@H]1NC(C)=O [Compound 16c, (3R,4R,5S)-4-acetamido-3-(pentan-3-yloxy)-5-((4-((3-sulfamoylbenzyl)oxy)benzyl)amino)cyclohex-1-ene-1-carboxylic acid]
other
  melting point: 193.2 to 198.1 °C (dec.)
[1]
  IC50: 900 ± 130 nM

## CCC(CC)O[C@@H]1C=C(C(=O)O)C[C@H](NCc2ccc(OCc3ccc(S(N)(=O)=O)cc3)cc2)[C@H]1NC(C)=O [Compound 17c, (3R,4R,5S)-4-acetamido-3-(pentan-3-yloxy)-5-((4-((4-sulfamoylbenzyl)oxy)benzyl)amino)cyclohex-1-ene-1-carboxylic acid]
[1]
  IC50: 27 ± 4.8 nM

## CCC(CC)O[C@@H]1C=C(C(=O)O)C[C@H](NCc2ccc(OCc3ccc(S(=O)(=O)O)cc3)cc2)[C@H]1NC(C)=O [Compound 18c, (3R,4R,5S)-4-acetamido-3-(pentan-3-yloxy)-5-((4-((4-sulfobenzyl)oxy)benzyl)amino)cyclohex-1-ene-1-carboxylic acid]
other
  melting point: 244.5 to 248.7 °C (dec.)
[1]
  IC50: 1640 ± 120 nM

## CCC(CC)OC1C=C(C(=O)O)CC(NCc2ccc(-c3ccccc3)cc2)C1NC(C)=O (stereo not drawn) [JMC20I]
N1, H5N1
  IC50: 1.9 nM

## CCC(CC)OC1C=C(C(=O)O)CC(NCc2ccc(Sc3cccs3)cc2)C1NC(C)=O (stereo not drawn) [JMC21g]
N1, H5N1
  IC50: 3.83 nM

## CCC(CC)OC1C=C(C(=O)O)CC(NCc2ccc(Sc3ccccc3)cc2)C1NC(C)=O (stereo not drawn) [JMC21h]
N1, H5N1
  IC50: 0.96 nM

## CCC(CC)O[C@@H]1C=C(C(=O)O)C[C@H](NCc2ccc3sc4ccccc4c3c2)[C@H]1NC(C)=O [JMC23d]
N1, H5N1
  IC50: 0.27 nM

## CCC(CC)OC1C=C(C(=O)O)CC(NCc2ccc(-c3cccs3)cc2)C1NC(C)=O (stereo not drawn) [JMC32]
N1, H5N1
  IC50: 2.1 nM

## CCC(CC)O[C@@H]1C=C(C(=O)O)C[C@H](N)[C@H]1NC(C)=O [OSC, oseltamivir carboxylate, reference compound]
In vitro [2]
  CC50: 201000 ± 4050 nM
[4]
  EC50: 760 ± 66 nM
A/Wisconsin/67/05 (H3N2)
  EC50: 360 ± 160 nM
[5]
  EC50: 2010 ± 61 nM
In vitro [6]
  CC50: > 250000 nM
A/PR/8/34 (H1N1)
  EC50: […]

## CC(=O)N[C@H]1[C@H]([C@H](O)[C@H](O)CO)OC(C(=O)O)=C[C@@H]1N=C(N)N [Zanamivir (ZAN), zanamivir, reference compound]
A/Wisconsin/67/05 (H3N2); Influenza A virus, H3N2, MDCK
  EC50: 270 ± 30 nM
In vitro [6]
  CC50: > 250000 nM
A/PR/8/34 (H1N1); Influenza A virus, MDCK
  EC50: […]
